From patent US9556492B2, “Corn plant MON88017 and compositions and methods for detection thereof” (Monsanto Technology LLC, priority 2003, dated 2017)

Test system: corn rootworm larvae
Assay: corn rootworm feeding damage field screen, root damage rated on the Node-Injury Scale
Format: in vivo, Diabrotica spp.
Details: Node-Injury Scale 0-3; insecticide treated non-insecticidal protein containing corn plants; 5 ounces per 1000 feet of row; artificially infested plots
Procedure: Transgenic corn plants were assayed for corn rootworm resistance to feeding damage by greenhouse and field screens. Root damage was rated using the Node-Injury Scale (NIS) developed by Oleson and Tollefson of Iowa State University, this scale rates damage done to corn roots using 0-3 values. The 0.00 value describes no feeding damage and is the lowest rating, 1.00 describes one node or the equivalent of an entire node eaten back to within approximately two inches of the stalk, 2.00 describes two complete nodes eaten, and 3.00 describes three or more nodes eaten and is the highest rating. Damage in between complete nodes eaten is noted as the percentage of the node missing, i.e., 1.50 describes 1½ nodes eaten, 0.25 describes ¼ of one node eaten. Field plots were artificially infested with corn rootworm larvae by applying 1500-2000 eggs per linear foot of row at the V3-V4 growth stage. Insecticide treated rows were treated with Tefluthrin insecticide (Force® 3G, Zeneca Ag Products) at a rate of 5 ounces per 1000 feet of row.

Cc1c(F)c(F)c(COC(=O)[C@@H]2[C@H](/C=C(\Cl)C(F)(F)F)C2(C)C)c(F)c1F (racemic) [Tefluthrin]
average RDR: 0.44
